The source of these data is US20080234273A1, “Heteroaryl Benzamide Derivatives for Use as Glk Activators in the Treatment of Diabetes” (priority 2005, published 2008).

The experiment deals with T1, recombinant human pancreatic GLK (Homo sapiens, UniProt P35557).
T1 sequence (P35557 1-465): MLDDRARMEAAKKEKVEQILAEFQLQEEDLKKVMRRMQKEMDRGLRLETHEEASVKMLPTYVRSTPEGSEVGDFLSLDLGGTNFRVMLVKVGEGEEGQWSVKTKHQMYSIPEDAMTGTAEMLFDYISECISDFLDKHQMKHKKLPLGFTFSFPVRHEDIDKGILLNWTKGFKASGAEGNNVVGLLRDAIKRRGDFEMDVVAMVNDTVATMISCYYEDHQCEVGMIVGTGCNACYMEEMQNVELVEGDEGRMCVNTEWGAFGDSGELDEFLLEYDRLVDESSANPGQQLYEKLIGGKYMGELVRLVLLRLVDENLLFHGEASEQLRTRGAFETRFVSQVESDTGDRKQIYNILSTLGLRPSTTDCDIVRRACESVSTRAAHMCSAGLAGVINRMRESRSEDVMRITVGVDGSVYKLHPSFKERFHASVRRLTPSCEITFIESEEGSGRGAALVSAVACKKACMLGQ
The experiment in a line: biochemical.

What is called EC50 is the concentration that produces a half-maximal response. Consider `C[C@@H](COC(F)F)Oc1cc(Oc2ccc(C(=O)N3CCC3)cc2Cl)cc(C(=O)Nc2ccn(C)n2)c1` [Example 1, 3-{[4-(Azetidin-1-ylcarbonyl)-2-chlorophenyl]oxy}-5-({(1S)-2-[(difluoromethyl)oxy]-1-methylethyvl}oxy)-N-(1-methyl-1H-pyrazol-3-yl)benzamide], for which the EC50 came to 40 nM.
